This note sets out measurements from US9067922B2, “Chemical compounds” (Pfizer Limited, priority 2013, dated 2015).

The first assay deals with URAT-1 transporter (Homo sapiens (Human), UniProt Q96S37). Description: URAT-1 inhibitor activity: [14C]-uric acid uptake in CHO-URAT1(L)GFP#8 (CHO#8) cells, scintillation proximity. Type of assay: cell-based.
URAT-1 transporter, sequence (Q96S37 other isoform, or with tags, fused parts or gaps): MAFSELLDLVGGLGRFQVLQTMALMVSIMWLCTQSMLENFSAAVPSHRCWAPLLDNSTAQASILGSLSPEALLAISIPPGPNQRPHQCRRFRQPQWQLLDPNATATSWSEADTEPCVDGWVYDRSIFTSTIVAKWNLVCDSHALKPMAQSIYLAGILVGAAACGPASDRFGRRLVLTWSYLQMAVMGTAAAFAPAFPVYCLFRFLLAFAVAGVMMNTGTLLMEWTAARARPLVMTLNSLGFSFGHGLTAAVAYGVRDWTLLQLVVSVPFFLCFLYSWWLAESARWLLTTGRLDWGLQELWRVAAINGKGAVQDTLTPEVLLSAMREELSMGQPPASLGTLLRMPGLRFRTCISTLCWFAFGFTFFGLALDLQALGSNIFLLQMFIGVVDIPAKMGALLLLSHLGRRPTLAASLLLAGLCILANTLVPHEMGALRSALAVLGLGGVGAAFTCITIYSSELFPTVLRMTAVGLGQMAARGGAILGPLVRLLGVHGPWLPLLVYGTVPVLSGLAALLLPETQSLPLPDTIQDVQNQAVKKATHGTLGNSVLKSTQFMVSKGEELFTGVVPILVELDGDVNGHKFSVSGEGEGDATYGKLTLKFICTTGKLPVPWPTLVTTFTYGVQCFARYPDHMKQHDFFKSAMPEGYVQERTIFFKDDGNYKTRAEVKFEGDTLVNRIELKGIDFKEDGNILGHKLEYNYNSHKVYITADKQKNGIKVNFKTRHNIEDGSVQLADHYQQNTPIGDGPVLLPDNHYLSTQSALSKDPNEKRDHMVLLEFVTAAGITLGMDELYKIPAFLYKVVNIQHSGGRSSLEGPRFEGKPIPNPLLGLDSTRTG
Details: not given
A digest of the protocol:
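CHO cells stably expressing human URAT1 long isoform–eGFP fusion, pre-incubated 1 h in chloride-containing buffer pH 7.4, then given 30 nM [14C]-uric acid with compound (0–10 μM, 0.25% DMSO) in chloride-free gluconate buffer pH 7.4. Uptake measured by scintillation proximity on Cytostar plates.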
`[2H]c1c(Oc2ccc(S(=O)(=O)Nc3ccc(F)cn3)c(F)c2)c([2H])c(C([2H])([2H])[2H])c(C#N)c1C([2H])([2H])[2H]` [Example 249] returned an IC50 of 21 nM.

Still in this assay, the particulars now being: inhibition of [14C]-uric acid (30 nM) uptake into CHO#8 cells; compound 0 to 10 μM; 4 parameter logistic fit.
Compound `N#Cc1cc(Oc2cc(F)c(S(=O)(=O)Nc3ncccn3)cc2Cl)ccc1F` [Example 225, 5-chloro-4-(3-cyano-4-fluorophenoxy)-2-fluoro-N-(pyrimidin-2-yl)benzenesulfonamide] came in with an IC50 of 2330 nM. `CCOc1ncccc1Oc1ccc(S(=O)(=O)Nc2ccc(F)cn2)cc1C#N` [Example 154, 3-cyano-4-[(2-ethoxypyridin-3-yl)oxy]-N-(5-fluoropyridin-2-yl)benzenesulfonamide]: the IC50 was above 10000 nM. The same measure, in the same setting: to `Cc1cc(F)ccc1Oc1ccc(S(=O)(=O)Nc2ccc(F)cn2)cc1C#N` [Example 145, 3-cyano-4-(4-fluoro-2-methylphenoxy)-N-(5-fluoropyridin-2-yl)benzenesulfonamide] belongs 96 nM; to `N#Cc1cc(S(=O)(=O)Nc2ccc(F)cn2)ccc1Oc1cccc(C2CC2)c1` [Example 118, 3-cyano-4-(3-cyclopropylphenoxy)-N-(5-fluoropyridin-2-yl)benzenesulfonamide], above 10000 nM; to `COc1cc(Oc2ccc(S(=O)(=O)Nc3ccc(F)cn3)cc2C#N)ccc1Cl` [Example 71, 4-(4-chloro-3-methoxyphenoxy)-3-cyano-N-(5-fluoropyridin-2-yl)benzenesulfonamide], 27 nM.

For the compound `N#Cc1cc(Oc2ccc(S(=O)(=O)Nc3ccc(F)cn3)cc2C#N)ccc1Cl` [Example 60, 4-(4-chloro-3-cyanophenoxy)-3-cyano-N-(5-fluoropyridin-2-yl)benzenesulfonamide], the IC50 was 92 nM. Same read-out and setting: next, `N#Cc1ccc(Oc2ccc(S(=O)(=O)Nc3ccncn3)cc2C#N)cc1Cl` [Example 87, 4-(3-chloro-4-cyanophenoxy)-3-cyano-N-(pyrimidin-4-yl)benzenesulfonamide]: above 7670 nM; `N#Cc1cc(S(=O)(=O)Nc2ccc(F)cn2)ccc1Oc1ccc(Cl)c(CO)c1` [compound 240]: 106 nM. On the same count and under the same terms, to `N#Cc1c(Cl)cccc1Oc1ccc(S(=O)(=O)Nc2ccncc2)cc1` [Example 217, 4-(3-chloro-2-cyanophenoxy)-N-(pyridin-4-yl)benzenesulfonamide] belongs above 10000 nM; to `COc1ccc(Cl)c(Oc2ccc(S(=O)(=O)Nc3ccc(F)cn3)cc2C#N)c1` [Example 44, 4-(2-chloro-5-methoxyphenoxy)-3-cyano-N-(5-fluoropyridin-2-yl)benzenesulfonamide], 167 nM; to `N#Cc1cc(S(=O)(=O)Nc2ccc(F)cn2)ccc1Oc1cc(Cl)ccc1C#N` [Example 65, 4-(5-chloro-2-cyanophenoxy)-3-cyano-N-(5-fluoropyridin-2-yl)benzenesulfonamide], 182 nM.

For the compound `N#Cc1cc(S(=O)(=O)Nc2ccc(F)cn2)ccc1Oc1cc(F)cc(F)c1` [Example 11, 3-cyano-4-(3,5-difluorophenoxy)-N-(5-fluoropyridin-2-yl)benzenesulfonamide], 125 nM corresponded to half-maximal inhibition (IC50).

Take `N#Cc1cc(F)c(Oc2ccc(S(=O)(=O)Nc3ccc(F)cn3)cc2C#N)cc1F` [Example 72, 3-cyano-4-(4-cyano-2,5-difluorophenoxy)-N-(5-fluoropyridin-2-yl)benzenesulfonamide]: the IC50 worked out at 77 nM. Still for that read-out and setting: to `N#Cc1cc(S(=O)(=O)Nc2ccc(F)cn2)ccc1Oc1ccc(Br)cc1` [Example 163, 4-(4-bromophenoxy)-3-cyano-N-(5-fluoropyridin-2-yl)benzenesulfonamide] belongs above 10000 nM. Same read-out and setting: to `CC(C)(O)c1ccc(Oc2ccc(S(=O)(=O)Nc3ccc(F)cn3)cc2C#N)cc1` [compound 234] belongs 1150 nM. Still for that read-out and setting: next, `N#Cc1ccc(Oc2ccc(S(=O)(=O)Nc3ccc(F)cn3)cc2F)cc1F` [Example 97, 4-(4-cyano-3-fluorophenoxy)-3-fluoro-N-(5-fluoropyridin-2-yl)benzenesulfonamide]: above 1670 nM. With `COc1ccc(Oc2ccc(S(=O)(=O)Nc3ccc(F)cn3)cc2C#N)cc1Cl` [Example 148, 4-(3-chloro-4-methoxyphenoxy)-3-cyano-N-(5-fluoropyridin-2-yl)benzenesulfonamide], inhibition was half-maximal at 53 nM (IC50). Same read-out and setting: to `N#Cc1cc(Oc2cc(F)c(S(=O)(=O)Nc3ncc(F)cn3)cc2Cl)ccc1F` [compound 214] belongs above 1150 nM; to `COc1cccnc1NS(=O)(=O)c1ccc(Oc2ccc(C#N)c(Cl)c2)c(C#N)c1` [Example 102, 4-(3-chloro-4-cyanophenoxy)-3-cyano-N-(3-methoxypyridin-2-yl)benzenesulfonamide], 3130 nM. `N#Cc1ccc(Oc2ccc(S(=O)(=O)Nc3cc(F)ccn3)cc2C#N)cc1Cl` [Example 104, 4-(3-chloro-4-cyanophenoxy)-3-cyano-N-(4-fluoropyridin-2-yl)benzenesulfonamide] showed a half-maximal inhibitory concentration (IC50) of 15 nM. On the same count and under the same terms, next, `N#Cc1ccc(Oc2ccc(S(=O)(=O)Nc3ccc(F)cn3)cc2C#N)cc1` [Example 10, 3-cyano-4-(4-cyanophenoxy)-N-(5-fluoropyridin-2-yl)benzenesulfonamide]: 74 nM; `CCc1ccc(Oc2ccc(S(=O)(=O)Nc3ccc(F)cn3)cc2C#N)cc1` [Example 50, 3-cyano-4-(4-ethylphenoxy)-N-(5-fluoropyridin-2-yl)benzenesulfonamide]: above 10000 nM. As for `N#Cc1ccc(Oc2cc(F)c(S(=O)(=O)Nc3ncc(F)cn3)cc2Cl)cc1Cl` [compound 226], the IC50 came out at 1780 nM.

`CCOc1ccccc1Oc1ccc(S(=O)(=O)Nc2ccc(F)cn2)cc1C#N` [Example 151, 3-cyano-4-(2-ethoxyphenoxy)-N-(5-fluoropyridin-2-yl)benzenesulfonamide] came in with a half-inhibitory concentration (IC50) above 10000 nM. Regarding `N#Cc1cc(S(=O)(=O)Nc2ccc(F)cn2)ccc1Oc1ccc(F)c(F)c1` [Example 77, 3-cyano-4-(3,4-difluorophenoxy)-N-(5-fluoropyridin-2-yl)benzenesulfonamide], the IC50 turned out to be 43 nM. On to `CC(C)Oc1ccc(F)cc1Oc1ccc(S(=O)(=O)Nc2ccc(F)cn2)cc1C#N` [Example 156, 3-cyano-4-[5-fluoro-2-(propan-2-yloxy)phenoxy]-N-(5-fluoropyridin-2-yl)benzenesulfonamide], for which the IC50 was above 10000 nM. Same read-out and setting: next, `CCN(CC)c1cccc(Oc2ccc(S(=O)(=O)Nc3ccc(F)cn3)cc2C#N)c1` [Example 113, 3-cyano-4-[3-(diethylamino)phenoxy]-N-(5-fluoropyridin-2-yl)benzenesulfonamide]: above 10000 nM; `Cc1cc(Oc2ccc(S(=O)(=O)Nc3ccc(F)cn3)cc2C#N)cc(C)c1C#N` [compound 235, 3-cyano-4-({4-cyano-3,5-bis[methyl-D3]-2,3-D2-phenyl}oxy)-N-(5-fluoropyridin-2-yl)benzenesulfonamide]: 13 nM; `Cc1ccc(C)c(Oc2ccc(S(=O)(=O)Nc3ccc(F)cn3)cc2C#N)c1` [Example 158, 3-cyano-4-(2,5-dimethylphenoxy)-N-(5-fluoropyridin-2-yl)benzenesulfonamide]: 122 nM. Still for that read-out and setting: to `N#Cc1ccc(Oc2ccc(S(=O)(=O)Nc3ccccn3)cc2C#N)cc1Cl` [Example 89, 4-(3-chloro-4-cyanophenoxy)-3-cyano-N-(pyridin-2-yl)benzenesulfonamide] belongs 105 nM. On the same count and under the same terms, to `N#Cc1cc(S(=O)(=O)Nc2ncccn2)ccc1Oc1ccc(F)c(F)c1` [compound 211] belongs above 3000 nM; to `CC(C)Oc1ccccc1Oc1ccc(S(=O)(=O)Nc2ccc(F)cn2)cc1C#N` [Example 207, 3-cyano-N-(5-fluoropyridin-2-yl)-4-[2-(propan-2-yloxy)phenoxy]benzenesulfonamide], above 10000 nM; to `N#Cc1cc(S(=O)(=O)Nc2ccc(F)cn2)ccc1Oc1ccc(F)cc1F` [Example 7, 3-cyano-4-(2,4-difluorophenoxy)-N-(5-fluoropyridin-2-yl)benzenesulfonamide], 64 nM.

On to `Cc1cc(Oc2ccc(S(=O)(=O)Nc3ccc(F)cn3)cc2C#N)c(Cl)cc1Cl` [Example 109, 3-cyano-4-(2,4-dichloro-5-methylphenoxy)-N-(5-fluoropyridin-2-yl)benzenesulfonamide], for which the half-inhibitory concentration (IC50) turned out to be 892 nM. The compound `N#Cc1cc(S(=O)(=O)Nc2ccc(F)cn2)ccc1Oc1ccc(Cl)cc1F` [Example 47, 4-(4-chloro-2-fluorophenoxy)-3-cyano-N-(5-fluoropyridin-2-yl)benzenesulfonamide] had a half-inhibitory concentration (IC50) of 50 nM. Still for that read-out and setting: next, `COc1ccc(C)c(Oc2ccc(S(=O)(=O)Nc3ccc(F)cn3)cc2C#N)c1` [Example 200, 3-cyano-N-(5-fluoropyridin-2-yl)-4-(5-methoxy-2-methylphenoxy)benzenesulfonamide]: 53 nM. Still for that read-out and setting: to `N#Cc1cc(S(=O)(=O)Nc2ccc(F)cn2)ccc1Oc1ccc(C#N)c(C(F)(F)F)c1` [Example 6, 3-cyano-4-[4-cyano-3-(trifluoromethyl)phenoxy]-N-(5-fluoropyridin-2-yl)benzenesulfonamide] belongs 267 nM; to `N#Cc1cc(S(=O)(=O)Nc2ccc(F)cn2)ccc1Oc1ccc(F)c(Cl)c1` [Example 78, 4-(3-chloro-4-fluorophenoxy)-3-cyano-N-(5-fluoropyridin-2-yl)benzenesulfonamide], 19 nM. In turn, `N#Cc1cc(S(=O)(=O)Nc2ccc(F)cn2)ccc1Oc1ccc(OC(F)(F)F)cc1` [Example 35, 3-cyano-N-(5-fluoropyridin-2-yl)-4-[4-(trifluoromethoxy)phenoxy]benzenesulfonamide] showed an IC50 above 10000 nM. Same read-out and setting: next, `N#Cc1cc(S(=O)(=O)Nc2ccc(F)cn2)ccc1Oc1ccc(F)c(C(F)(F)F)c1` [Example 48, 3-cyano-N-(5-fluoropyridin-2-yl)-4-[4-fluoro-3-(trifluoromethyl)phenoxy]benzenesulfonamide]: 683 nM; `COc1ccc(C#N)cc1Oc1ccc(S(=O)(=O)Nc2ccc(F)cn2)cc1C#N` [Example 197, 3-cyano-4-(5-cyano-2-methoxyphenoxy)-N-(5-fluoropyridin-2-yl)benzenesulfonamide]: above 10000 nM.

As usually defined, the IC50 is the midpoint of a concentration-inhibition curve. Low values mean greater potency, high ones weaker potency.
